From BindingDB's records for doi:10.1021/acschembio.5b00940 (University of Washington, 2016) come the findings set out here.

This assay concerns the target T1, Serine/threonine-protein kinase/endoribonuclease IRE1 [547-977] (Homo sapiens, UniProt O75460).
T1 construct: 547-977
In words: In vitro RNase Assay. From the text:
The fluorescence intensities were normalized by setting the signal for the reaction without IRE1α* to 0.

Some results are limits rather than exact numbers.

T1 sequence (O75460 547-977): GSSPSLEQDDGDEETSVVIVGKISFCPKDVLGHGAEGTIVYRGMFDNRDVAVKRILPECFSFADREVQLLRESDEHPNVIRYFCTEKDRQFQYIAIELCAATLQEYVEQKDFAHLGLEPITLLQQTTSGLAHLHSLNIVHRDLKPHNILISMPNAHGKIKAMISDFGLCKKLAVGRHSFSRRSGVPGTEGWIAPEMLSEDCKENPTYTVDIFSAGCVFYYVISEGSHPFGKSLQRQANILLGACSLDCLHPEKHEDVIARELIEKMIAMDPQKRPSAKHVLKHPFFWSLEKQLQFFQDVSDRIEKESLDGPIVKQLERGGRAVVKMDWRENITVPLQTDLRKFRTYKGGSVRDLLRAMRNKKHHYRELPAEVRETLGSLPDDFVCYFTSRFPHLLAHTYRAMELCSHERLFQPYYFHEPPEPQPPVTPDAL

Broadly, the IC50 is the point on the concentration scale where inhibition reaches its midpoint. Read a low IC50 as greater potency in that assay. `CC(C)(C)c1nc(-c2ccc(NC(=O)Nc3cccc(C(F)(F)F)c3)c3ccccc23)c2c(N)nccn12` [KIRA analog, 2] gave a half-maximal inhibitory concentration (IC50) of 120 nM.
Under `CC1(c2nc(-c3ccc(NC(=O)N4CCCCC4)c4ccccc34)c3c(N)nccn23)CC1` [KIRA analog, 27] stands 60000 nM; under `CC1(c2nc(-c3ccc(NC(=O)Nc4cccc(C(F)(F)F)c4)c4ccccc34)c3c(N)nccn23)COC1` [KIRA analog, 6], 330 nM.
Molecule `Cc1cccc(NC(=O)Nc2ccc(-c3nc(C4(C)CC4)n4ccnc(N)c34)c3ccccc23)c1` [KIRA analog, 14] gave an IC50 of 260 nM. The IC50 values of the last two molecules are within 1.5-fold of each other.
Molecule `Cc1cc(NC(=O)Nc2cccc(C(F)(F)F)c2)ccc1-c1nc(C2(C)CC2)n2ccnc(N)c12` [KIRA analog, 8] showed an IC50 of 1500 nM.
Molecule `CC1(c2nc(-c3ccc(NC(=O)Nc4ccccc4)c4ccccc34)c3c(N)nccn23)CC1` [KIRA analog, 12] returned an IC50 of 190 nM.
Regarding `COc1cc(NC(=O)Nc2ccc(-c3nc(C4(C)CC4)n4ccnc(N)c34)c3ccccc23)cc(C(F)(F)F)c1` [KIRA analog, 17], the IC50 was found to be 290 nM. Compared with the last molecule, the IC50 is about 1.5-fold higher.
Turning to `CC1(c2nc(-c3ccc(NC(=O)NC4CC4)c4ccccc34)c3c(N)nccn23)CC1` [KIRA analog, 28], the IC50 worked out at 6300 nM.
Under `Cc1c(NC(=O)Nc2cccc(C(F)(F)F)c2)ccc(-c2nc(C3(C)CC3)n3ccnc(N)c23)c1C` [KIRA analog, 10] stands 1200 nM; under `CC1(c2nc(-c3ccc(NC(=O)Nc4cccc(C(F)(F)F)c4)cc3Cl)c3c(N)nccn23)CC1` [KIRA analog, 9], 2400 nM.
Under `Cc1cc(NC(=O)Nc2ccc(-c3nc(C4(C)CC4)n4ccnc(N)c34)c3ccccc23)n[nH]1` [KIRA analog, 22] stands 7100 nM; under `CC1(c2nc(-c3ccc(NC(=O)Nc4cccc(F)c4)c4ccccc34)c3c(N)nccn23)CC1` [KIRA analog, 13], 220 nM; under `CC(C)(C)c1nc(-c2ccc(NC(=O)N3CCN(c4cccc(C(F)(F)F)c4)C3=O)c3ccccc23)c2c(N)nccn12` [KIRA analog, 30], over 60000 nM.
In the case of `Nc1nccn2c(C3CC3)nc(-c3ccc(NC(=O)Nc4cccc(C(F)(F)F)c4)c4ccccc34)c12` [KIRA analog, 5] it was 480 nM; in that of `CC1(c2nc(-c3ccc(NC(=O)NC4CCCCC4)c4ccccc34)c3c(N)nccn23)CC1` [KIRA analog, 25], 2200 nM; in that of `CC1(c2nc(-c3ccc(NC(=O)Nc4cc(F)cc(C(F)(F)F)c4)c4ccccc34)c3c(N)nccn23)CC1` [KIRA analog, 18], 610 nM.
With `CC1(c2nc(-c3ccc(NC(=O)Nc4cccc(C(F)(F)F)c4)cc3F)c3c(N)nccn23)CC1` [KIRA analog, 7], half-maximal inhibition (IC50) required 390 nM.
As to `CN1CCN(Cc2ccc(NC(=O)Nc3ccc(-c4nc(C5(C)CC5)n5ccnc(N)c45)c4ccccc34)cc2C(F)(F)F)CC1` [KIRA analog, 20], the IC50 came to 190 nM.
In the case of `CC1(c2nc(-c3ccc(NC(=O)Nc4cccc(C(F)(F)F)c4)c4ccccc34)c3c(N)nccn23)CC1` [KIRA analog, 3] it was 90 nM; in that of `CC1(c2nc(-c3ccc(NC(=O)N4CCOCC4)c4ccccc34)c3c(N)nccn23)CC1` [KIRA analog, 26], 60000 nM; in that of `COc1cccc(NC(=O)Nc2ccc(-c3nc(C4(C)CC4)n4ccnc(N)c34)c3ccccc23)c1` [KIRA analog, 15], 310 nM.
`CC1(c2nc(-c3ccc(NC(=O)OCC(=O)c4ccccc4)c4ccccc34)c3c(N)nccn23)CC1` [KIRA analog, 32] registered an IC50 of 60000 nM. This IC50 is about 190-fold higher than that of the molecule before.
Under `CN(C(=O)Nc1ccc(-c2nc(C3(C)CC3)n3ccnc(N)c23)c2ccccc12)c1cccc(C(F)(F)F)c1` [KIRA analog, 29] stands 19000 nM; under `CN1CCN(Cc2ccc(NC(=O)Nc3ccc(-c4nc(C5(C)CC5)n5ccnc(N)c45)c4ccccc34)cc2)CC1` [KIRA analog, 21], 340 nM; under `Nc1nccn2c(C3CCC3)nc(-c3ccc(NC(=O)Nc4cccc(C(F)(F)F)c4)c4ccccc34)c12` [KIRA analog, 4], 180 nM.
Under `CC1(c2nc(-c3ccc(NC(=O)OCCc4ccccc4)c4ccccc34)c3c(N)nccn23)CC1` [KIRA analog, 31] stands 60000 nM.
The molecule `CNS(=O)(=O)c1cccc(NC(=O)Nc2ccc(-c3nc(C4(C)CC4)n4ccnc(N)c34)c3ccccc23)c1` [KIRA analog, 19] had an IC50 of 1600 nM. Compared with the last molecule, the IC50 is about 38-fold lower.
`CC1(c2nc(-c3ccc(NC(=O)NCc4ccccc4)c4ccccc34)c3c(N)nccn23)CC1` [KIRA analog, 23] yielded an IC50 of 3600 nM.
Molecule `CC1(c2nc(-c3ccc(NC(=O)Nc4cccc(C(F)(F)F)c4)c(F)c3F)c3c(N)nccn23)CC1` [KIRA analog, 11] came in with an IC50 of 20000 nM. This IC50 lies about 5.6-fold higher than the previous one.
In the case of `CC1(c2nc(-c3ccc(NC(=O)NCCc4ccccc4)c4ccccc34)c3c(N)nccn23)CC1` [KIRA analog, 24] it was 4100 nM; in that of `CSc1cccc(NC(=O)Nc2ccc(-c3nc(C4(C)CC4)n4ccnc(N)c34)c3ccccc23)c1` [KIRA analog, 16], 140 nM.
